# Calls of active or inactive are those of the source. The calls are words filed in the database; no cut-off is given here.
# Key:
# [1] = (§1) Inhibition of LPS-induced NO production in mouse BV-2 cells at 10 uM measured after 24 hrs followed by induced with LPS for another 24 hrs by ELISA relative to control; format: functional
# [2] = Cytotoxicity against mouse BV-2 cells assessed as cell viability at 10 uM measured after 24 hrs by MTT assay relative to control; format: toxicity, cell-based; settings: read-out: Activity
# BV-2 [3] = test: as §1; format: functional
# [4] = Permeability of compound in PBS/EtOH (70:30) buffer incubated for 18 hrs by PAMPA-BBB assay
# BV-2 [5] = test: Anti-inflammatory activity against LPS-induced mouse BV-2 cells assessed as decrease in LPS-induced Cyclooxygenase-2 mRNA expression at 20 uM incubated for 4 hrs followed by LPS induced for 12 hrs by RT-PCR analysis relative to control; format: functional, cell-based; settings: time 16.0 hrs
log Pe [4],Structure (SMILES),inhibition at 10 µM [1],"viability at 24 h, 10 µM [2]",inhibition (BV-2 [3]),Activity (BV-2 [5])
–,COc1cc(Cn2ccc3c(Nc4ccc5c(cnn5C)c4)ncnc32)cc(OC)c1,63.8%,62.5%,–,–
–,O=c1[nH]c2ccc(Nc3ncnc4c3ccn4Cc3ccc4c(c3)OCO4)cc2[nH]1,56.3%,89.3%,–,–
–,O=C(Cn1ccc2c(Nc3ccc4[nH]c(=O)[nH]c4c3)ncnc21)N1CCOCC1,54.3%,102%,–,–
–,O=c1[nH]c2ccc(Nc3ncnc4c3ccn4Cc3ccc(F)cc3F)cc2[nH]1,54.3%,98.2%,–,–
–,O=c1[nH]c2ccc(Nc3ncnc4c3ccn4Cc3cccc(Cl)c3F)cc2[nH]1,–,73%,inactive,–
–,COc1ccc(Cn2ccc3c(Nc4ccc5[nH]c(=O)[nH]c5c4)ncnc32)cc1OC,–,75.2%,inactive,–
–,O=C1Cc2cc(Nc3ncnc4c3ccn4Cc3ccc(F)cc3Cl)ccc2N1,–,56.6%,inactive,–
–,O=c1[nH]c2ccc(Nc3ncnc4c3ccn4Cc3ccc(F)cc3Cl)cc2[nH]1,78.5%,84.5%,–,–
–,Cc1ccc(Cn2ccc3c(Nc4ccc5[nH]c(=O)[nH]c5c4)ncnc32)cc1,–,77.2%,inactive,–
–,Fc1ccc(Cn2ccc3c(Nc4ccc5cn[nH]c5c4)ncnc32)c(Cl)c1,–,76.2%,inactive,–
–,O=c1[nH]c2ccc(Nc3ncnc4c3ccn4Cc3cc(C(F)(F)F)cc(C(F)(F)F)c3)cc2[nH]1,–,58.5%,inactive,–
–,O=c1[nH]c2ccc(Nc3ncnc4c3ccn4Cc3ccc(I)cc3)cc2[nH]1,74.5%,98.7%,–,–
–,COc1cccc(Cn2ccc3c(Nc4ccc5[nH]c(=O)[nH]c5c4)ncnc32)c1,63.8%,88.5%,–,–
–,Fc1ccc(Cn2ccc3c(Nc4ccc5scnc5c4)ncnc32)c(Cl)c1,–,61.7%,inactive,–
-6.06,CC1(C)S[C@@H]2[C@H](NC(=O)Cc3ccccc3)C(=O)N2[C@H]1C(=O)[O-].[Na+] [PENICILLIN G SODIUM],–,–,–,–
–,COc1ccc2c3c1O[C@H]1C[C@@H](O)C=C[C@@]31CCNC2,55.7%,91.2%,–,Active
–,O=c1[nH]c2ccc(Nc3ncnc4c3ccn4Cc3ccc(F)c(Cl)c3)cc2[nH]1,–,57.3%,inactive,–
–,Cc1ccccc1Cn1ccc2c(Nc3ccc4[nH]c(=O)[nH]c4c3)ncnc21,63.5%,81.8%,–,–
–,COc1cc([C@H]2OC[C@H]3[C@@H]2CO[C@@H]3c2cc(OC)c(O)c(OC)c2)cc(OC)c1O [SYRINGARESINOL],75.6%,91%,–,–
–,COc1cc(Cn2ccc3c(Nc4ccc5[nH]c(=O)oc5c4)ncnc32)cc(OC)c1,–,59.3%,inactive,–
–,O=c1[nH]c2ccc(Nc3ncnc4c3ccn4Cc3cccc4cccnc34)cc2[nH]1,43.8%,84.7%,–,–
–,O=c1[nH]c2ccc(Nc3ncnc4c3ccn4Cc3c(F)cccc3Cl)cc2[nH]1,–,77.2%,inactive,–
–,COc1cc(Cn2ccc3c(Nc4ccc5c(c4)OCO5)ncnc32)cc(OC)c1,70.2%,93.2%,–,–
–,O=c1[nH]c2ccc(Nc3ncnc4c3ccn4Cc3cccc4ccccc34)cc2[nH]1,–,59.7%,inactive,–
–,Cn1ncc2cc(Nc3ncnc4c3ccn4Cc3ccc(F)cc3Cl)ccc21,–,79.2%,inactive,–

log Pe [4],Structure (SMILES),inhibition at 10 µM [1],"viability at 24 h, 10 µM [2]",inhibition (BV-2 [3]),Activity (BV-2 [5])
–,O=c1[nH]c2ccc(Nc3ncnc4c3cnn4Cc3cc(Cl)cc(Cl)c3)cc2[nH]1,–,52.2%,inactive,–
–,O=c1[nH]c2ccc(Nc3ncnc4c3ccn4Cc3cc(F)ccc3F)cc2[nH]1,–,50.7%,inactive,–
–,O=c1[nH]c2ccc(Nc3ncnc4c3ccn4Cc3ccc(Cl)cc3)cc2[nH]1,71.3%,91.7%,–,–
–,O=c1[nH]c2ccc(Nc3ncnc4c3ccn4Cc3c(Cl)cccc3Cl)cc2[nH]1,–,57.6%,inactive,–
–,O=c1[nH]c2ccc(Nc3ncnc4c3ccn4Cc3ccc(F)cc3Cl)cc2o1,54.3%,85.7%,–,–
–,O=C(Cn1ccc2c(Nc3ccc4[nH]c(=O)[nH]c4c3)ncnc21)c1ccccc1,–,74.3%,inactive,–
–,COc1cc(Cn2ccc3c(Nc4ccc5scnc5c4)ncnc32)cc(OC)c1,–,84.5%,inactive,–
–,COc1cc(Cn2ccc3c(Nc4ccc5[nH]c(=O)[nH]c5c4)ncnc32)cc(OC)c1,42.5%,107%,–,–
–,O=c1[nH]c2ccc(Nc3ncnc4c3cnn4Cc3cccc(F)c3Cl)cc2[nH]1,96.2%,83.2%,–,–
–,O=c1[nH]c2ccc(Nc3ncnc4c3ccn4Cc3ccccc3)cc2[nH]1,76.6%,99.7%,–,–
–,O=c1[nH]c2ccc(Nc3ncnc4c3ccn4Cc3ccc(Cl)c(F)c3)cc2[nH]1,103%,83.1%,–,–
–,O=c1[nH]c2ccc(Nc3ncnc4c3cnn4Cc3cc(F)cc(Cl)c3)cc2[nH]1,61.7%,92.9%,–,–
–,O=c1[nH]c2ccc(Nc3ncnc4c3ccn4Cc3ccc(Cl)cc3F)cc2[nH]1,–,72.1%,inactive,–
–,Cc1cccc(Cn2ccc3c(Nc4ccc5[nH]c(=O)[nH]c5c4)ncnc32)c1,–,59%,inactive,–
–,Fc1ccc(Cn2ccc3c(Nc4ccc5c(c4)OCO5)ncnc32)c(Cl)c1,46.8%,96.9%,–,–
-6.24,CCn1cc(C(=O)O)c(=O)c2cc(F)c(N3CCNCC3)nc21 [ENOXACIN],–,–,–,–
–,COc1cc(Cn2ccc3c(Nc4ccc5cn[nH]c5c4)ncnc32)cc(OC)c1,77.7%,118%,–,–
–,O=c1[nH]c2ccc(Nc3ncnc4c3ccn4Cc3cc(Cl)ccc3F)cc2[nH]1,–,70.3%,inactive,–
–,O=c1[nH]c2ccc(Nc3ncnc4c3cnn4Cc3cccc(Cl)c3F)cc2[nH]1,–,53.3%,inactive,–
–,O=c1[nH]c2ccc(Nc3ncnc4c3cnn4Cc3ccc(Cl)cc3F)cc2[nH]1,–,57.8%,inactive,–
–,O=c1[nH]c2ccc(Nc3ncnc4c3ccn4Cc3cccc(F)c3Cl)cc2[nH]1,–,42.2%,inactive,–
–,COc1ccc(Cn2ccc3c(Nc4ccc5[nH]c(=O)[nH]c5c4)ncnc32)cc1,76.6%,115%,–,–
–,O=c1[nH]c2ccc(Nc3ncnc4c3ccn4Cc3cc(F)cc(Cl)c3)cc2[nH]1,45.7%,104%,–,–
–,COc1cc(Cn2ccc3c(Nc4ccc5c(c4)CC(=O)N5)ncnc32)cc(OC)c1,–,53%,inactive,–

# From ChEMBL document CHEMBL6096669, “Design and synthesis of novel derivatives of bisepoxylignans as potent anti-inflammatory agents involves the modulation of the M1/M2 microglia phenotype via TLR4/NF-κB signaling pathway” (Eur J Med Chem, 2025)
